Assay results reported in article PMC8955938, “c-Myc Protein Level Affected by Unsymmetrical Bisacridines Influences Apoptosis and Senescence Induced in HCT116 Colorectal and H460 Lung Cancer Cells” (International Journal of Molecular Sciences, 2022).
“And” between values parts separate entries of the source, which are not always exact repeats. Equal values may be shown once.

Columns and labels:
[1] = tested on: H460 cells; assay: Mitochondrial transmembrane potential (JC-1), H460; type: cell-based, human; details: H460, IC90 doses, 120 h
Experimental: Changes in the mitochondrial membrane potential (ΔΨm) were analyzed by flow cytometry using 5,5′,6,6′-tetrachloro-1,1′,3,3′-tetraethylbenzimidazolyl-carbocyanine iodide, JC-1 (BD Biosciences, San Jose, CA, USA) according to manufacturer’s specification. Briefly, after treatment, HCT116 and H460 cells (1 × 10^6) were trypsinized, pelleted, resuspended in media and stained with JC-1 for 15 min at 37 °C. After staining, cells were washed twice with assay buffer and analyzed by flow cytometry with FACS Accuri C6 (BD, San Jose, CA, USA). The loss of ΔΨm was monitored based on the decrease in JC-1 red fluorescence concurrent with the increase in green fluorescence.

[2] = tested on: active caspase-3 in HCT116 cells; assay: Active caspase-3 flow cytometry, HCT116; type: cell-based, human; details: HCT116, IC90 doses, 120 h
Experimental: Caspase-3 activity was determined using Alexa Fluor 647-conjugated anti-active caspase-3 antibody (BD Biosciences, San Diego, CA, USA) according to the manufacturer’s instructions. Briefly, HCT116 and H460 cells (1 × 10^6) were trypsinized, pelleted, washed twice with ice-cold PBS and fixed in Fixation Buffer for 20 min on ice. After fixation, cells were rinsed twice with Perm Wash Buffer, stained with Alexa Fluor 647-conjugated anti-active caspase-3 antibody for 30 min, rinsed with Perm Wash Buffer and analyzed by flow cytometry with FACS Accuri C6 (BD, San Jose, CA, USA).

[3] = tested on: cleaved PARP in H460 cells; assay: PARP cleavage flow cytometry, H460; type: cell-based, human; details: H460, IC90 doses
Experimental: PARP cleavage was determined using Alexa Fluor 647-conjugated anti-cleaved PARP antibody (BD Biosciences, San Diego, CA, USA) according to the manufacturer’s instructions. Briefly, HCT116 and H460 cells (1 × 10^6) were trypsinized, pelleted, washed twice with ice-cold PBS and fixed in Fixation Buffer for 20 min on ice. After fixation, cells were rinsed twice with Perm Wash Buffer, stained with Alexa Fluor 647-conjugated anti-cleaved PARP antibody for 30 min, rinsed with Perm Wash Buffer and analyzed by flow cytometry with FACS Accuri C6 (BD, San Jose, CA, USA).

[4] = tested on: H460 cells; assay: Cell cycle analysis (PI, flow cytometry), H460; type: cell-based, human; details: H460, IC90 doses
Experimental: After drug treatment, trypsinized and floating cells (2 × 10^6) were pooled, washed twice with ice-cold PBS and fixed in 70% (v/v) ethanol overnight at −20 °C. Cells were stained with propidium iodide (PI) (BD Biosciences, San Jose, CA, USA) and monitored by FACS Accuri C6 (BD Biosciences, San Jose, CA, USA).

[5] = tested on: H460 cells; assay: Colony-forming assay, H460; type: cell-based, human; details: for number of colonies: H460, 120 h treatment at IC90 doses, about 250 cells cultured two weeks in fresh medium; for return to proliferation (colony formation): H460, IC90 doses, already after 24 h of incubation
Experimental: The ability of cells to return to proliferation after UAs treatment was measured by a colony-forming assay. After drug treatment, 250 HCT116 and H460 cells were harvested and seeded in a new 6-well plate containing fresh medium without the drug and incubated for two weeks. Untreated cells were used as controls. After two weeks, colonies were fixed with 80% ethanol, stained with crystal violet, counted, and photos were taken.

[6] = tested on: HCT116 spheroids; design: method as in PMID 34684841; details: HCT116 3D spheroids; cited from earlier work
[7] = tested on: MYC gene expression in HCT116 cells; assay: RT-PCR MYC expression in HCT116; type: cell-based, human; details: HCT116, IC90 doses, 120 h, 2^-ΔΔCt
Experimental: HCT116, H460, CCD 841 CoN and MRC-5 cells after treatment with UAs were collected, washed twice with ice-cold PBS and resuspended in […] of PBS. mRNA was isolated using High Pure RNA Isolation Kit according to the manufacturer’s instructions (Roche, Basel, Switzerland). Briefly, cells were lysed in lysis-binding buffer and transferred to a filter tube. Contaminating DNA was removed by 15 min incubation of the filter tube with DNase I solution. The filter tube was washed once with buffer I and twice with buffer II, and after centrifugation, total RNA was eluted using the elution buffer. RNA concentration was determined by NanoDrop One (Thermo Scientific); 1 µg of RNA was reverse transcribed using Transcriptor First Strand cDNA Synthesis Kit according to the manufacturer’s instructions (Roche) in 20 µL of reaction containing 1 µg of RNA, […] anchored-oligo(dT)18Primer, 8 mM MgCl2, 20 U of Protector RNase Inhibitor, deoxynucleotide mix (1 mM each) and 22 U of Transcriptor Reverse Transcriptase. The reverse transcription reaction was carried out for 30 min at 55 °C and stopped by heating to 85 °C for 5 min and placing on ice. The cDNA solution was stored at −20 °C until use. […] The relative expression level of MYC and KRAS was quantified using comparative method […]. The results were obtained from three independent experiments, each of which was analyzed at least twice.

Structure (SMILES) | cells with decreased mitochondrial transmembrane potential (ΔΨm) [1] | cells with active caspase-3 [2] | cells with cleaved PARP ([3]; 120 h) | Poli (polyploid cells) ([4]; 24 h) | cells in G1 ([4]; 24 h) | cells in G2/M ([4]; 24 h) | cells in S ([4]; 24 h) | cells in Sub-G1 ([4]; 24 h) | Poli (polyploid cells) ([4]; 72 h) | cells in G1 ([4]; 72 h) | cells in G2/M ([4]; 72 h) | cells in S ([4]; 72 h) | cells in Sub-G1 ([4]; 72 h) | Poli (polyploid cells) ([4]; 120 h) | cells in G1 ([4]; 120 h) | cells in G2/M ([4]; 120 h) | cells in S ([4]; 120 h) | cells in Sub-G1 ([4]; 120 h) | number of colonies [5] | inhibition of spheroids growth [6] | other results
CN(CCCNc1c2ccccc2nc2cccc([N+](=O)[O-])c12)CCCNc1ccc2ncn3c4ccccc4c(=O)c1c23 [Compound C-2028] | 44.3% | 34.8% and 40% | about 20% | 1.70 ± 0.42% | 32.92 ± 3.77% | 21.64 ± 4.23% | 32.74 ± 2.09% | 11.09 ± 3.80% | 2.11 ± 0.55% | 37.15 ± 4.13% | 19.21 ± 6.60% | 15.80 ± 2.33% | 25.45 ± 7.20% | 4.03 ± 0.95% | 29.87 ± 2.31% | 28.98 ± 3.64% | 9.93 ± 2.46% | 26.84 ± 1.92% and 26.8% | eight | – | –
O=c1c2ccccc2n2cnc3ccc(NCCCN4CCN(CCCNc5c6ccccc6nc6cccc([N+](=O)[O-])c56)CC4)c1c32 [Compound C-2041] | 46.8% | 39.5% and 40% | about 20% | 1.78 ± 0.42% | 31.30 ± 2.48% | 23.89 ± 5.34% | 34.76 ± 4.78% | 8.43 ± 3.14% | 2.52 ± 0.71% | 42.86 ± 1.87% | 21.24 ± 2.69% | 16.09 ± 2.94% | 17.43 ± 2.40% | 2.30 ± 0.60% | 35.08 ± 3.65% | 14.84 ± 4.06% | 11.59 ± 1.16% | 36.47 ± 3.18% and 36.5% | 77 colonies | to the least extent | MYC expression, fold increase [7]: 3.3 fold
Cc1ccc([N+](=O)[O-])c2c(NCCCN(C)CCCNc3ccc4ncn5c6ccc(O)cc6c(=O)c3c45)c3ccccc3nc12 [Compound C-2045] | 62.5% | 39.3% and 40% | 28.2% | 1.78 ± 0.33% | 32.25 ± 3.01% | 28.15 ± 2.14% | 26.56 ± 3.44% | 9.84 ± 4.46% | 2.05 ± 0.60% | 39.94 ± 4.65% | 20.87 ± 5.18% | 18.53 ± 5.99% | 18.66 ± 3.61% | 2.28 ± 1.33% | – | 21.49 ± 5.96% | 9.03 ± 1.37% | 42.42 ± 8.29% and 42.4% | – | – | cells with cleaved PARP ([3]; 72 h): 53.9%; return to proliferation (colony formation) [5]: completely blocked their return to proliferation; MYC expression, fold increase [7]: 5.3 fold
Cc1ccc([N+](=O)[O-])c2c(NCCCN(C)CCCNc3ccc4ncn5c6ccccc6c(=O)c3c45)c3ccccc3nc12 [Compound C-2053] | 67.8% | 20.9% | 43.3% | 2.76 ± 0.30% | 30.44 ± 2.27% | 27.37 ± 2.20% | 33.77 ± 3.66% | 6.28 ± 1.52% | 1.73 ± 0.52% | 36.08 ± 5.84% | 24.96 ± 3.05% | 14.09 ± 2.46% | 22.37 ± 2.06% | 2.39 ± 1.17% | – | 19.77 ± 6.06% | 10.78 ± 1.76% | 41.51 ± 5.77% and 41.5% | – | to the greatest extent | cells with cleaved PARP ([3]; 72 h): 47.8%; return to proliferation (colony formation) [5]: completely blocked their return to proliferation
